# Literature values, collected in patent US12396980B2, “Melatonin for preventing and treating radiation cystitis” (RepoCeuticals A/S, priority 2015, dated 2025).
# Columns and labels:
# radiation cystitis = conditions: human patients
# lymphocytes = conditions: prior oral dosage; human beings
# rat urinary bladder = conditions: intraperitoneal
structure (smiles),measurement,setting,value
"C[S+](C)[O-] [DMSO, Dimethyl sulfoxide]",therapeutic effect on radiation cystitis,radiation cystitis,some therapeutic effect
"COc1ccc2[nH]cc(CCNC(C)=O)c2c1 [melatonin, /V-acetyl-5-methoxytryptamine]",protective effect on the damage caused by subsequent ex vivo radiation exposure of lymphocytes,lymphocytes,protective effect
same,protective effect against radiation-induced oxidative changes to the rat urinary bladder,rat urinary bladder,protective effect
COC1=C(OC)C(=O)C(C/C=C(\C)CC/C=C(\C)CC/C=C(\C)CC/C=C(\C)CC/C=C(\C)CC/C=C(\C)CC/C=C(\C)CC/C=C(\C)CC/C=C(\C)CCC=C(C)C)=C(C)C1=O [coenzyme Q10],water solubility,,almost water-insoluble
